From article PMC7986981 (ACS Pharmacology & Translational Science, 2021)
Where two headings read alike, the source gives them in different places. Where a SMILES comes first, the peptide text is derived from it. The star is where a group is joined. Cbz = O=C(OCc1ccccc1)*

Tests used:
SARS-CoV-2 3CL-Pro = SARS-CoV-2 3CL-Pro (Severe acute respiratory syndrome coronavirus 2, UniProt P0DTD1); assay: biochemical; format: biochemical
SARS-CoV 3CL-Pro = settings: cited from earlier work
[1] = oral drugs, no reference given; cited from earlier work
[2] = test system: SARS-CoV-2 CPE in Caco-2 cells; settings: cited from earlier work
SARS-CoV-2 = format: cell-based; settings: read-out: vRNA reduction / viral replication IC50 in Vero-E6 (qPCR)
[3] = test system: SARS-CoV-2 cytopathic effect in Vero-E6 cells; format: cell-based
deubiquitinating enzymes = settings: read-out: IC50 values against several deubiquitinating enzymes; cited from earlier work
MERS 3CL-Pro = MERS 3CL-Pro (Middle East respiratory syndrome-related coronavirus, UniProt K9N7C7); format: biochemical; settings: read-out: IC50 MERS 3CL-Pro
chymotrypsin = format: biochemical; settings: 1 mM DTT
[4] = read-out: SARS-CoV-2 3CL-Pro IC50
[5] = read-out: HP 3CL-Pro IC50, hit profiling, without DTT
[6] = 20 μM compound, result in words
[7] = read-out: SARS-CoV-2 3CL-Pro IC50, without DTT, values given in nM

Chain of MERS 3CL-Pro (K9N7C7 3248-3553 limits assumed): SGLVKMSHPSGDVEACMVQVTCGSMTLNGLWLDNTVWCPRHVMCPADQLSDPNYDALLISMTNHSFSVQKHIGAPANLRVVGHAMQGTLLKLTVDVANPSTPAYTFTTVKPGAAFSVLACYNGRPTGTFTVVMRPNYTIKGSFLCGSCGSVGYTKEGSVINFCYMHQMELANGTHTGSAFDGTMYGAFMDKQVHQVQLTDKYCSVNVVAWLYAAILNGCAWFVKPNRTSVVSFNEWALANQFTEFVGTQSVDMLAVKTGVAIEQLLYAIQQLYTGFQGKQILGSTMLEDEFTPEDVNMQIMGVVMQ

With `Cc1ccc(-n2sc3ccccc3c2=O)cc1` [PBIT] the IC50 (SARS-CoV-2 3CL-Pro; [4]) was 20 nM.
In the case of `CC(Cc1ccc(O)c(O)c1)C(C)Cc1ccc(O)c(O)c1` (stereo not drawn) [nordihydroguaiaretic acid], the IC50 (SARS-CoV-2 3CL-Pro; [5]) is reported as 2590 nM.
Work on `Cc1ccc(C)c(-n2sc3cc(F)ccc3c2=O)c1` [MLS0315771] yielded an IC50 (SARS-CoV-2 3CL-Pro; [4]) of 20 nM.
For `CCOC(=O)/C=C/[C@H](C[C@@H]1CCNC1=O)NC(=O)[C@@H](CC(=O)[C@@H](NC(=O)c1cc(C)on1)C(C)C)Cc1ccc(F)cc1` [rupintrivir], the “activity against SARS-CoV 3CL-Pro” value (SARS-CoV 3CL-Pro) is listed as “lacks activity”.
In the case of `NC(CO)C(=O)NNCc1ccc(O)c(O)c1O` (stereo not drawn) [Benserazide hdrochloride], the “measured acute toxicity in rodents” value [1] is listed as “higher than 5 mg/kg”.
For `CC(C)C[C@@H](C=O)NC(=O)[C@H](CC(C)C)NC(=O)[C@H](CC(C)C)NC(=O)OCc1ccccc1` [MG-132] (Cbz-Leu-Leu-Leu-aldehyde), the “anti-CPE activity against SARS-CoV-2 in Caco-2 cells (words)” value (“anti-CPE activity” for short) [2] is listed as “active” and the IC50 (SARS-CoV-2) is listed as 100 nM.
For `CN1CCc2cccc3c2[C@H]1Cc1ccc(O)c(O)c1-3` [apomorphine], the “measured acute toxicity in rodents” value [1] is listed as “higher than 5 mg/kg”.
In the case of `O=c1c2ccccc2[se]n1-c1ccccc1` [Ebselen], the “effect of DTT (0 and 1 mM) on SARS-CoV-2 3CL-Pro inhibition” value (“effect … on SARS-CoV-2 3CL-Pro inhibition” below) (SARS-CoV-2 3CL-Pro) is reported as “loss of inhibitory capacity”.
In the case of `O=c1cc(-c2ccccc2)oc2cc(O)c(O)c(O)c12` [Baicalein], the “effect … on SARS-CoV-2 3CL-Pro inhibition” value (SARS-CoV-2 3CL-Pro; [6]) is reported as “loss of inhibitory capacity”.
For `CC[C@H](CO)Nc1nc(NCc2ccc(-c3ccccn3)cc2)c2ncn(C(C)C)c2n1` [CR8-(R)], the IC50 (SARS-CoV-2 3CL-Pro; read-out: HP 3CL-Pro IC50) was 800 nM and the “anti-CPE effect in Vero-E6 phenotypic assay” value (“anti-CPE effect” below) [3] was “no anti-CPE effect”.
In the case of `N#CSc1cc(SC#N)c(N)nc1N` [PR-619], the IC50 (deubiquitinating enzymes) is listed as 2000 to 10000 nM, the “anti-CPE activity” value [2] is listed as “inactive” and the IC50 (MERS 3CL-Pro) is listed as 2300 nM. The IC50 (SARS-CoV-2 3CL-Pro; [5]) was 400 nM and the “anti-CPE effect” value [3] was “inactive”.
`CC(=O)[O][Hg][c]1ccccc1` [phenylmercuric acetate] showed an IC50 (SARS-CoV-2 3CL-Pro; [7]) of 10 nM.
In the case of `Oc1cc2c(cc1O)[C@H]1c3ccccc3CN[C@@H]1CC2` (racemic) [Dihydrexidine], the IC50 (SARS-CoV-2 3CL-Pro; HP 3CL-Pro IC50 (μM), hit profiling, without DTT) is reported as 1100 nM.
For `Cn1sc(=O)n(Cc2ccccc2)c1=O` [TDZD-8], the “effect … on SARS-CoV-2 3CL-Pro inhibition” value (SARS-CoV-2 3CL-Pro; [6]) was “insensitive to DTT”.
For `Nc1nc2c(ncn2[C@@H]2O[C@H](CO)[C@@H](O)[C@H]2O)c(=S)[nH]1` [Thioguanosine], the “anti-CPE activity” value [2] is listed as “anti-SARS-CoV-2 CPE effects” and the “anti-CPE activity” value ([2]; listed as thioguanosine) is listed as “active”.
In the case of `O=c1c(O)c(-c2cc(O)c(O)c(O)c2)oc2cc(O)cc(O)c12` [Myricetin], the “anti-CPE effect” value [3] is reported as “not reflected in anti-CPE”.
With `CCCC[C@@H](C=O)NC(=O)[C@H](CC(C)C)NC(=O)OCc1ccccc1` [calpeptin] the “effect … on SARS-CoV-2 3CL-Pro inhibition” value (SARS-CoV-2 3CL-Pro; [6]) was “retained its inhibitory effect independent of DTT” and the “effect of preincubation time (15, 30, 60 min) on inhibition” value (SARS-CoV-2 3CL-Pro; 25 °C, 20 μM, result in words) was “unchanged”.
`Oc1cc(CNC(=S)/C=C/c2cc(O)c(O)c(Br)c2)cc(O)c1O` [NT-157] gave an IC50 (SARS-CoV-2 3CL-Pro; read-out: SARS-CoV-2 3CL-Pro IC50 (unit inferred)) of 500 nM.
With zinc pyrithione the “effect … on SARS-CoV-2 3CL-Pro inhibition” value (SARS-CoV-2 3CL-Pro) was “lost its inhibitory effects in the presence of DTT”, the “effect of preincubation time (15, 30, 60 min) on inhibition” value (SARS-CoV-2 3CL-Pro) was “increased with preincubation time” and the “fold more potent after preincubation at 37 °C versus 25 °C” value (SARS-CoV-2 3CL-Pro) was 3 fold. For the same compound, the IC50 (SARS-CoV 3CL-Pro; read-out: SARS-CoV 3CL-Pro IC50) was 800 nM.
Work on `O=c1c2ccccc2sn1-c1ccccc1` [PD08290] yielded an IC50 (SARS-CoV-2 3CL-Pro; [4]) of 20 nM.
For `CCN(CC)C(=S)SSC(=S)N(CC)CC` [Disulfiram], the “effect … on SARS-CoV-2 3CL-Pro inhibition” value (SARS-CoV-2 3CL-Pro; [6]) was “loss of inhibitory capacity”.
For `O=c1c2cc(F)ccc2sn1-c1cc(S(=O)(=O)N2CCOCC2)ccc1N1CCOCC1` [ML345], the IC50 (SARS-CoV-2 3CL-Pro; [4]) was 20 nM.
For `Oc1c(I)cc(I)c(O)c1I` [riodoxol], the “measured acute toxicity in rodents” value [1] is given as “higher than 5 mg/kg”.
For `O=c1sn(-c2cccc3ccccc23)c(=O)n1Cc1ccccc1` [Tideglusib], the “effect … on SARS-CoV-2 3CL-Pro inhibition” value (SARS-CoV-2 3CL-Pro; [6]) was “loss of inhibitory capacity”.
In the case of `COCCCOc1ccnc(C[S+]([O-])c2nc3ccccc3[nH]2)c1C` (stereo not drawn) [rabeprazole], the “measured acute toxicity in rodents” value [1] is given as “higher than 5 mg/kg”.
For `[H]/N=C(\N/C(=N/[H])NCCCCCCNC(=N)NC(=N)Nc1ccc(Cl)cc1)Nc1ccc(Cl)cc1` [Chlorhexidine], the “effect … on SARS-CoV-2 3CL-Pro inhibition” value (SARS-CoV-2 3CL-Pro; [6]) was “not an effective inhibitor”.
In the case of `CCCCCCNC(=O)n1cc(F)c(=O)[nH]c1=O` [Carmofur], the “effect … on SARS-CoV-2 3CL-Pro inhibition” value (SARS-CoV-2 3CL-Pro; [6]) is reported as “insensitive to DTT” and the “Chymotrypsin Inhibition [%] +DTT (10 μM)” value (chymotrypsin) is reported as 14%.
In the case of `COC(=O)CC[C@H](NC(=O)[C@H](CC(=O)OC)NC(=O)OCc1ccccc1)C(=O)N[C@H](C(=O)N[C@@H](CC(=O)OC)C(=O)CF)C(C)C` [Z-DEVD-FMK], the “fold higher potency than previously reported” value (SARS-CoV-2 3CL-Pro; own IC50 versus literature reports (Z-DEVD-FMK: ref 13)) is reported as 600 fold, the IC50 (SARS-CoV-2 3CL-Pro; [7]) is reported as 10 nM and the “anti-CPE effect” value [3] is reported as “did not influence CPE”.
With `O=C(O[C@@H]1Cc2c(O)cc(O)cc2O[C@@H]1c1cc(O)c(O)c(O)c1)c1cc(O)c(O)c(O)c1` [epigallocatechin gallate, (-)-Epigallocatechin gallate] the “effect … on SARS-CoV-2 3CL-Pro inhibition” value (SARS-CoV-2 3CL-Pro; [6]) was “did not show DTT dependence”.
For `CC(C)(C)NC(=O)N[C@H](C(=O)N1C[C@H]2[C@@H]([C@H]1C(=O)NC(CC1CCC1)C(=O)C(N)=O)C2(C)C)C(C)(C)C` (stereo partly drawn) [boceprevir], the inhibition at 20 µM (SARS-CoV-2 3CL-Pro; read-out: HC 3CL-Pro Inhibition [%] (20 μM), hit confirmation, triplicate, 20 μM compound) was under 50%.
Compound `CCC(C)SSc1ncc[nH]1` (stereo not drawn) [PX-12] has an IC50 (MERS 3CL-Pro) of 7600 nM.
